The values below come from patent US20240174671A1, “New 2,3-Dihydro-1H-pyrrolo[3,2-b]pyridine Derivatives as Sigma Ligands” (ACONDICIONAMIENTO TARRASENSE, priority 2021, published 2024).

One test concerns the target T1, human σ2/TMEM97 receptor (Homo sapiens, UniProt Q5BJF2).
T1 construct: expressed in transfected cells; host or cells: HEK-293
In words: Binding assay to human σ2/TMEM97 receptor ([3H]-DTG). The settings on record: transfected HEK-293 membranes, 10 nM [3H]-DTG, 25° C., 120 minutes; read-out: Binding σ-[…] (binding to σ2-receptor expressed as Ki). In outline: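 Membranes from transfected HEK-293 cells incubated with 10 nM [3H]-DTG in 50 mM Tris-HCl pH 8.0, 120 min at 25 °C; non-specific binding defined with 10 μM haloperidol. Bound radioactivity counted after filtration; compounds tested as % inhibition at 1 or 10 μM or at five concentrations for Ki.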

The next test has as its target T2, human σ1 receptor (Homo sapiens, UniProt Q99720).
T2 construct: expressed in transfected cells; host or cells: HEK-293
In words: Human σ1 receptor radioligand assay ([3H](+)-pentazocine). It is filed as binding. In outline:
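Binding used [3H](+)-pentazocine, 120 min at 37° C, with non-specific binding defined by 10 μM haloperidol. Bound radioligand was collected by filtration, washed with ice-cold 10 mM Tris-HCl pH 7.4 and counted by scintillation.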

The mark [1] stands for this setting: transfected HEK-293 membranes, 5 nM [3H](+)-pentazocine, 37° C., 120 minutes, read-out: Binding σ-[…] (binding to σ1-receptor expressed as Ki).

Read-outs that look alike come from different tables or passages of the source.

T2 sequence (Q99720 whole entry): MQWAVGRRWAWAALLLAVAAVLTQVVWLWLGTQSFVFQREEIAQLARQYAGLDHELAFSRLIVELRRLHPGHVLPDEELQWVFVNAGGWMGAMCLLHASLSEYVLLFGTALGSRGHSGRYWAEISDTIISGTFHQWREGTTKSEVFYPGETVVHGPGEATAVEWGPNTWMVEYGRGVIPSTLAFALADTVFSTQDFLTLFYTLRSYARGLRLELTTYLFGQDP
T1 sequence (Q5BJF2 whole entry): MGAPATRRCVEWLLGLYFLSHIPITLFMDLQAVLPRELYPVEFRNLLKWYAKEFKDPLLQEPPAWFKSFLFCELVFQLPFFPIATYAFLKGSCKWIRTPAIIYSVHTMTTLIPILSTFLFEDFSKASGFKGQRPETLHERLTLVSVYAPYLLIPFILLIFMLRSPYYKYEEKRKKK

Turning to `CC1(C)CN(C(=O)N2CCC3(CCN(Cc4ncccc4F)CC3)C2)c2cccnc21` [Example 153], the Ki (in general, the equilibrium dissociation constant of an inhibitor or competing ligand from its target) at human σ2/TMEM97 receptor is 100 to 500 nM; on human σ1 receptor (setting [1]), greater than 1000 nM.

`CC1(C)CN(C(=O)N2CCC3(CCN(Cc4ccc(F)cn4)CC3)C2)c2cccnc21` [Example 154, (3,3-dimethyl-2,3-dihydro-1H-pyrrolo[3,2-b]pyridin-1-yl)(8-((5-fluoropyridin-2-yl)methyl)-2,8-diazaspiro[4.5]decan-2-yl)methanone]: the Ki at human σ2/TMEM97 receptor is less than 100 nM; on human σ1 receptor (setting [1]), 100 to 500 nM.

Take `CC1(C)CN(C(=O)N2CCC3(CCN(Cc4ccc(C(F)(F)F)nc4)CC3)C2)c2cccnc21` [Example 155, (3,3-dimethyl-2,3-dihydro-1H-pyrrolo[3,2-b]pyridin-1-yl)(8-((6-(trifluoromethyl)pyridin-3-yl)methyl)-2,8-diazaspiro[4.5]decan-2-yl)methanone]: the Ki at human σ2/TMEM97 receptor is less than 100 nM; on human σ1 receptor (setting [1]) it was greater than 1000 nM.

On to `CC1(C)CN(C(=O)N2CCC3(CCN(CCC4CCOCC4)CC3)C2)c2cccnc21` [Example 156, (3,3-dimethyl-2,3-dihydro-1H-pyrrolo[3,2-b]pyridin-1-yl)(8-(2-(tetrahydro-2H-pyran-4-yl)ethyl)-2,8-diazaspiro[4.5]decan-2-yl)methanone], for which the Ki on human σ2/TMEM97 receptor was less than 100 nM; at human σ1 receptor it was 100 to 500 nM.

Regarding `CC1(C)CN(C(=O)N2CCC3(CCN(Cc4ccc(C#N)cc4F)CC3)C2)c2cccnc21` [Example 157, 4-((2-(3,3-dimethyl-2,3-dihydro-1H-pyrrolo[3,2-b]pyridine-1-carbonyl)-2,8-diazaspiro[4.5]decan-8-yl)methyl)-3-fluorobenzonitrile], the Ki is less than 100 nM on human σ2/TMEM97 receptor and 100 to 500 nM on human σ1 receptor (setting [1]).

Take `CC1(C)CN(C(=O)N2CCC3(CCN(Cc4cc(C#N)c(F)cc4F)CC3)C2)c2cccnc21` [Example 158, 5-((2-(3,3-dimethyl-2,3-dihydro-1H-pyrrolo[3,2-b]pyridine-1-carbonyl)-2,8-diazaspiro[4.5]decan-8-yl)methyl)-2,4-difluorobenzonitrile]: the Ki on human σ2/TMEM97 receptor and on human σ1 receptor (setting [1]) was less than 100 nM in each case.

Take `CC1(C)CN(C(=O)N2CC3(CCN(Cc4ccccc4)CC3)C2)c2cccnc21` [Example 159, (7-benzyl-2,7-diazaspiro[3.5]nonan-2-yl)(3,3-dimethyl-2,3-dihydro-1H-pyrrolo[3,2-b]pyridin-1-yl)methanone]: the Ki at human σ2/TMEM97 receptor was 100 to 500 nM; at human σ1 receptor (setting [1]) it was less than 100 nM.

`Cc1ccc2c(n1)C(C)(C)CN2C(=O)N1CCC2(CCN(Cc3ccccc3F)CC2)CC1` [Example 160, (9-(2-fluorobenzyl)-3,9-diazaspiro[5.5]undecan-3-yl)(3,3,5-trimethyl-2,3-dihydro-1H-pyrrolo[3,2-b]pyridin-1-yl)methanone]: the inhibition constant (Ki) on human σ2/TMEM97 receptor and on human σ1 receptor (setting [1]) was less than 100 nM throughout.

In the case of `Cc1ccc2c(n1)C(C)(C)CN2C(=O)N1CCC2(CCN(CC3CCOCC3)CC2)CC1` [Example 161, (9-((tetrahydro-2H-pyran-4-yl)methyl)-3,9-diazaspiro[5.5]undecan-3-yl)(3,3,5-trimethyl-2,3-dihydro-1H-pyrrolo[3,2-b]pyridin-1-yl)methanone], the values for the Ki on human σ2/TMEM97 receptor and on human σ1 receptor (setting [1]) were less than 100 nM and 100 to 500 nM, respectively.

Consider `Cc1ccc2c(n1)C(C)(C)CN2C(=O)N1CCC2(CCN(Cc3ccc(F)c(C#N)c3)CC2)CC1` [Example 162, 2-fluoro-5-((9-(3,3,5-trimethyl-2,3-dihydro-1H-pyrrolo[3,2-b]pyridine-1-carbonyl)-3,9-diazaspiro[5.5]undecan-3-yl)methyl)benzonitrile], for which the Ki at human σ2/TMEM97 receptor and at human σ1 receptor (setting [1]) was 100 to 500 nM in each case.

In the case of `Cc1ccc2c(n1)C(C)(C)CN2C(=O)N1CCC2(CCN(Cc3ccc(C#N)c(F)c3)CC2)CC1` [Example 163, 2-fluoro-4-((9-(3,3,5-trimethyl-2,3-dihydro-1H-pyrrolo[3,2-b]pyridine-1-carbonyl)-3,9-diazaspiro[5.5]undecan-3-yl)methyl)benzonitrile], the Ki on human σ2/TMEM97 receptor and at human σ1 receptor (setting [1]) was 100 to 500 nM each time.
